From patent publication US6787517B1 (priority 2000, dated 2004) come the findings set out here.

For this experiment, the system named is digitonin-permeabilized bovine adrenochromaffin cells. Type of experiment: cell-based.

Consider botulinum toxin type A, for which the “inhibition of Ca2+-stimulated catecholamine release” value is “inhibition”.
